Laboratory results taken from patent US6855730B2, “3-methylidenyl-2-indolinone modulators of protein kinase” (Sugen, Inc., priority 1998, dated 2005).

Legend:
Format in all cases: cell-based
[1] = target: T1, chimeric receptor containing the EGFR extracellular domain and intracellular HER2 kinase domain (Homo sapiens, UniProt P04626); assay: EGF Receptor-HER2 chimeric receptor assay in whole cells (ELISA); settings: read-out: HER-2 kinase IC50
T1 construct: fused on or other part: EGFR ectodomain + HER2 intracellular part, ATP-site indolinones: HER2's kinase
T1 sequence (P04626 720-1255 limits assumed, change not shown): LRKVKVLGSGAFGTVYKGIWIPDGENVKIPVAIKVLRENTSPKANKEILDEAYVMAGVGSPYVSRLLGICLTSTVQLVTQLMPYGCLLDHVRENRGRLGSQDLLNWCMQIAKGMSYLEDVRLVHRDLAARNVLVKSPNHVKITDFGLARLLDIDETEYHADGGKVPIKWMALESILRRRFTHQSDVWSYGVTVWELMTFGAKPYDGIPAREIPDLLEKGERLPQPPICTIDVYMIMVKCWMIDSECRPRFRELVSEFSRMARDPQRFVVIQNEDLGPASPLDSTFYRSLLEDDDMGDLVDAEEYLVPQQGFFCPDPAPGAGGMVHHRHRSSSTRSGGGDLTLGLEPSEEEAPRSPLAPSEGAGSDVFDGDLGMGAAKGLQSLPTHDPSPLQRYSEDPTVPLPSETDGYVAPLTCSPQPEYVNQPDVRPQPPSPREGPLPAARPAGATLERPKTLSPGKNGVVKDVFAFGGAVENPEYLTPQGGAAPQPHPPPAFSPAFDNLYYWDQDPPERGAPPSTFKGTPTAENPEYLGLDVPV
Procedure, shortened: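 NIH3T3 cells overexpressing EGFR-extracellular/HER2-kinase chimera, seeded in 0.5% serum for ~40 h, were pretreated with compound (1% final DMSO) 2 h at 37 °C, then stimulated with 100 nM EGF for 5 min. Lysates captured on anti-EGFR plates; phosphotyrosine detected by anti-Ptyr/HRP ELISA at 410 nm as percent inhibition.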

SKOV3 cells = assay: SKOV3 growth assay (2% FBS); settings: Homo sapiens, SK-OV-3, read-out: SKOV3 growth (2% FBS) IC50
A431 cells = assay: A431 growth assay (2% FBS); settings: Homo sapiens, A-431, read-out: A431 growth (2% FBS) IC50

IC50 [1] [µM]	IC50 (SKOV3 cells) [µM]	IC50 (A431 cells) [µM]	SMILES
61.7	–	–	CCOC(=O)c1c(C)[nH]c(/C=C2\C(=O)Nc3ccc(Br)cc32)c1CCC(=O)O [Compound 114, 5-(5-Bromo-2-oxo-1,2-dihydroindol-3-ylidenemethyl)-4-(2-carboxyethyl)-2-methyl-1H-pyrrole-3-carboxylic acid ethyl ester]
6.07	–	–	Cc1cc(CCC(=O)O)c(/C=C2\C(=O)Nc3ccc(Br)cc32)[nH]1 [Compound 116, 3-[2-(5-Bromo-2-oxo-1,2-dihydroindol-3-ylidenemethyl)-5-methyl-1H-pyrrol-3-yl]-propionic acid]
13.8	5.5	5.4	COc1c(C(C)C)cc(/C=C2/C(=O)Nc3ccccc32)cc1C(C)C [Example 1, 3-(3,5-Diisopropyl-4-methoxybenzylidene)-1,3-dihydroindol-2-one]
13.7	4.8	4.5	COc1c(C(C)C)cc(/C=C2/C(=O)Nc3ccc(Cl)cc32)cc1C(C)C [Example 2, 5-Chloro-3-(3,5-diisopropyl-4-methoxybenzylidene)-1,3-dihydroindol-2-one]
